Measurements taken from patent US20060252813A1, “Apparatus for curing a composite laminate” (priority 2002, published 2006).
Where a SMILES comes first, the peptide text is derived from it. [ ]: non-standard residue; d: D form. Phe(3-CN) = N#Cc1cccc(C[CH](N)C(=O)O)c1; Phe(2-CN) = N#Cc1ccccc1C[CH](N)C(=O)O; 1Nal = N[CH](Cc1cccc2ccccc12)C(=O)O

Tests used:
LpCyp18 = LpCyp18 (Legionella pneumophila, UniProt Q5ZRZ4); assay: biochemical
hPin1 = hPin1 (Homo sapiens, UniProt Q13526); assay: protease-coupled PPIase assay, hPin1; type: biochemical; settings: 6 nM hPin1; substrate Ac-Ala-Ala-Ser(PO3H2)-Pro-Arg-pNA, trypsin; 35 mM HEPES pH 7.8, 6° C; read-out: Target T-1 (hPin1), IC50 class
hPin1, sequence (Q13526 whole entry): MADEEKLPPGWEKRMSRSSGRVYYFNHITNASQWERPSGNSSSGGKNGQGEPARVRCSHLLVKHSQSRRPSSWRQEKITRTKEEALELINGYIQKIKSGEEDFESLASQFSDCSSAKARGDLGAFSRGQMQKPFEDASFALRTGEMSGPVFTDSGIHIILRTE

hCyp18 = hCyp18 (Homo sapiens, UniProt P62937); assay: protease-coupled PPIase assay, hCyp18; type: biochemical; settings: 10 nM hCyp18; substrate Suc-Ala-Phe-Pro-Phe-pNA, α-chymotrypsin; 35 mM HEPES pH 7.8, 6° C; read-out: Target T-3 (hCyp18), IC50 class
hCyp18, sequence (P62937 whole entry): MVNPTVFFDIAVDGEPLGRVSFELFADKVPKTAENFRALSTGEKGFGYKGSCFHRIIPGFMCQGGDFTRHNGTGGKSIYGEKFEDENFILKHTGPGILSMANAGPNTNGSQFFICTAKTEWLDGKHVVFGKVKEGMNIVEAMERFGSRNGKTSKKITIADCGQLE

hFKBP12 = hFKBP12 (Homo sapiens, UniProt P62942); assay: protease-coupled PPIase assay, hFKBP12; type: biochemical; settings: 20 nM hFKBP12; substrate Suc-Ala-Phe-Pro-Phe-pNA, α-chymotrypsin; 35 mM HEPES pH 7.8, 6° C; read-out: Target T-2 (hFKBP12), IC50 class
hFKBP12, sequence (P62942 whole entry): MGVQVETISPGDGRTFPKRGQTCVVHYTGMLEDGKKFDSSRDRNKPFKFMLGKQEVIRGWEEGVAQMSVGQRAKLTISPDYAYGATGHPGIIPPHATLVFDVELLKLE

EcParvulin = EcParvulin (Escherichia coli, UniProt P0A9L5); assay: protease-coupled PPIase assay, EcParvulin; type: biochemical; settings: 20 nM EcParvulin; substrate Suc-Ala-Phe-Pro-Phe-pNA, α-chymotrypsin; 35 mM HEPES pH 7.8, 6° C; read-out: Target T-5 (EcParv), IC50 class
EcParvulin, sequence (P0A9L5 whole entry): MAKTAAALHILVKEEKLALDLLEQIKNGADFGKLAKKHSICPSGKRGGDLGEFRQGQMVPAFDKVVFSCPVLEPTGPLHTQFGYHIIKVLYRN

LpCyp18, sequence (Q5ZRZ4 1-164): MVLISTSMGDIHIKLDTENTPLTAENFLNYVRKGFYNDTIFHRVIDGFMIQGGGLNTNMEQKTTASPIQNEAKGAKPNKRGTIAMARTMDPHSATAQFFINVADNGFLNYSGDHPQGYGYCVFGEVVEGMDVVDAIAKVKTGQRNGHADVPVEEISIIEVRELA

CCNC(=S)NC(Cc1ccc2ccccc2c1)C(=O)NCCC#N (stereo not drawn) [Compound 1]
IC50 (LpCyp18): > 100 µM
IC50 (hPin1): < 5 µM
IC50 (hCyp18): > 100 µM
IC50 (hFKBP12): > 100 µM

N#CCCNC(=O)[C@H](Cc1csc2ccccc12)NC(=S)Nc1ccc(SC(F)(F)F)cc1 [Compound 2]
IC50 (LpCyp18): > 100 µM
IC50 (hPin1): 5 to 10 µM
IC50 (hCyp18): > 100 µM
IC50 (hFKBP12): > 100 µM

N#CCCNS(=O)(=O)Cc1ccccc1 [Compound 3]
IC50 (LpCyp18): > 100 µM
IC50 (hPin1): 5 to 10 µM
IC50 (hCyp18): > 100 µM
IC50 (hFKBP12): > 100 µM

CCc1ccc(NC(=S)NCCC#N)cc1 [Compound 5]
IC50 (LpCyp18): > 100 µM
IC50 (hPin1): < 5 µM
IC50 (hCyp18): > 100 µM
IC50 (hFKBP12): > 100 µM

CC(C)CC(NC(=O)C1CCCN1CC#N)C(N)=O (stereo not drawn) [Compound 6]
IC50 (LpCyp18): > 100 µM
IC50 (hPin1): 5 to 10 µM
IC50 (hCyp18): > 100 µM
IC50 (hFKBP12): > 100 µM

CN(C)c1ccc(N=Nc2ccc(S(=O)(=O)NCCC#N)cc2)cc1 [Compound 7]
IC50 (LpCyp18): > 100 µM
IC50 (hPin1): 5 to 10 µM
IC50 (hCyp18): > 100 µM
IC50 (hFKBP12): > 100 µM

CC(=O)NC(Cc1cccc2ccccc12)C(=O)NC(Cc1ccccc1C#N)C(N)=O (stereo not drawn) [Compound 8] (Ac-[1Nal]-[Phe(2-CN)]-NH2; configuration not given here)
IC50 (LpCyp18): > 100 µM
IC50 (hPin1): < 5 µM
IC50 (hCyp18): > 100 µM
IC50 (hFKBP12): > 100 µM

CC(=O)NC(Cc1cccc2ccccc12)C(=O)NC(Cc1cccc(C#N)c1)C(N)=O (stereo not drawn) [Compound 9] (Ac-[1Nal]-[Phe(3-CN)]-NH2; configuration not given here)
IC50 (LpCyp18): > 100 µM
IC50 (hPin1): 5 to 10 µM
IC50 (hCyp18): > 100 µM
IC50 (hFKBP12): > 100 µM
IC50 (EcParvulin): 5 to 10 µM
